# Columns and labels:
# [1] = system: Aod(xtal) (RNA, riboswitch) GGGUCGUGACUGGCGAACAGGUGGGAAACCACCGGGGAGCGACCCUUGCCGCCCGCCUGGGCAA; assay: ITC; conditions: 135 mM KCl, 15 mM NaCl, 10 mM MgCl2; 10 mM K-HEPES pH 8.0
# [2] = system: Aod(xtal-wtL2) (RNA, riboswitch) GGGUCGUGACUGGCGAACAGGUGGGCCACCACCGGGGAGCGACCCUUGCCGCCCGCCUGGGCAA; assay: ITC; conditions: 135 mM KCl, 15 mM NaCl, 10 mM MgCl2; 10 mM K-HEPES pH 8.0
smiles,measurement,setting,value
NC(=O)c1ncn([C@@H]2O[C@H](COP(=O)(O)O)[C@@H](O)[C@H]2O)c1N,KD,[1],1080 ± 60 nM
same,KD,[2],470 ± 30 nM

# Reference: article PMC4557640 (2015)
